Holding throughout (format): in vivo
Assay [1] deals with Impatiens Dazzler ® Pink seeds. As to the kind of experiment: Root elongation in germinating seeds with calcium effectors. Particulars: 6 mM EGTA, 5 days; for Root length: 5 mM manganese chloride or 8 ppm IBA, 25° C., 20 seeds, water 6.9; for Root growth, in words: 5 mM manganese chloride, 8 ppm IBA. The method, then: (§1) To investigate other mechanisms that might disrupt calcium utilization by germinating seeds leading to adverse effects on root formation and elongation, a number of known calcium effectors were analyzed. EGTA is a well-known calcium-chelating compound which binds free calcium ions. The element, manganese, has been characterized to act as a calcium channel blocker in the cellular environment of the plasma membrane, thereby inhibiting uptake and utilization of calcium by the cell. Finally, auxins, like IBA, can disrupt calcium signaling pathways in the cell, thereby disrupting cellular developmental processes like rooting. For these experiments, seeds were germinated in the presence of these compounds, and the lengths of the roots (in mm) from 20 randomly-selected seeds (per treatment) were measured. These values were then compared to the lengths of the roots from 20 randomly-selected seeds germinated in water during the same time period and under the same environmental conditions.
Approximately 100 seeds of impatiens (variety Dazzler® Pink commercially available from Ball Horticultural Company, 622 Town Road, West Chicago, Ill. 60185) were germinated in 125 mL Erlenmeyer flasks containing either 40 mL water, 6 mM EGTA, 5 mM manganese chloride or 8 ppm IBA at 25° C. in a lighted growth room on an orbital shaker. After 5 days, root lengths were measured and recorded (see Table 1 below).

For assay [2], the system named is Pepper Holiday Flame seeds. Described as above. Particulars: 5 days; for Root length: 6 mM EGTA or 5 mM manganese chloride, 25° C., water 6.5; for Root elongation, in words: 6 mM EGTA, 5 mM manganese chloride. Here is the method: as §1
Approximately 100 seeds of pepper (variety Holiday Flame commercially available from Ball Horticultural Company, 622 Town Road, West Chicago, Ill. 60185) were germinated in 125 mL Erlenmeyer flasks containing either 40 mL water, 6 mM EGTA or 5 mM manganese chloride at 25° C. in a lighted growth room on an orbital shaker. After 5 days, root lengths were measured and recorded (see Table 1 below).

The subject of assay [3] is Pansy Baby Bingo Sky Blue primed seeds. The assay is described as above. Particulars: 5 days; for Inhibition of root length versus water-treated seeds: 6 mM EGTA, 5 mM manganese chloride; for Root length: primed, 6 mM EGTA or 5 mM manganese chloride, 25° C., water 10.3. The method, then:
as §1
Approximately 100 primed seeds of pansy (variety Baby Bingo Sky Blue commercially available from Ball Horticultural Company, 622 Town Road, West Chicago, Ill. 60185) were germinated in 125 mL Erlenmeyer flasks containing either 40 mL water, 6 mM EGTA or 5 mM manganese chloride at 25° C. in a lighted growth room on an orbital shaker. After 5 days, root lengths were measured and recorded (see Table 1 below).

Assay [4] concerns Rice Cypress seeds. The assay is described as above. Particulars: 5 days; for Root length: 6 mM EGTA or 5 mM manganese chloride, 25° C., water 15.6. Here is the method: as §1
Approximately 100 seeds of rice (variety Cypress obtained from LSU Rice Research Station) were germinated in 125 mL Erlenmeyer flasks containing either 40 mL water, 6 mM EGTA or 5 mM manganese chloride at 25° C. in a lighted growth room on an orbital shaker. After 5 days, root lengths were measured and recorded (see Table 1 below).

The test system of assay [5] is Tomato Tumbler seeds. Described as above. Particulars: 5 days; for Root length: 6 mM EGTA or 5 mM manganese chloride, 25° C., water 6.5; for Root elongation, in words: 6 mM EGTA, 5 mM manganese chloride. Here is the method:
as §1
Approximately 100 seeds of tomato (variety Tumbler commercially available from Ball Horticultural Company, 622 Town Road, West Chicago, Ill. 60185) were germinated in 125 mL Erlenmeyer flasks containing either 40 mL water, 6 mM EGTA or 5 mM manganese chloride at 25° C. in a lighted growth room on an orbital shaker. After 5 days, root lengths were measured and recorded (see Table 1 below).

Assay [6] deals with Arabidopsis seeds. As to the kind of experiment: Root development of germinating seeds with sucrose in nutrient medium. Particulars: 1% (w/v) added to the nutrient medium. The source says:
(§2) Also different, Arabidopsis, but not impatiens, root development was sensitive to an ammonium/potassium ionic imbalance in the nutrient medium.

Assay [7] relates to germinating impatiens seeds. The description is as above. Particulars: 1% (w/v) in the nutrient medium, liquid or solid environment.
Description: as §2

Assay [8] concerns Vinca Coconut Cooler seeds. As to the kind of experiment: Root elongation in germinating seeds with calcium effectors. Particulars: 6 mM EGTA or 5 mM manganese chloride, 5 days, 25° C. The method, then:
as §1
After 5 days, root lengths were measured and recorded (see Table 1 below).

In the case of `O=C(O)CCCc1c[nH]c2ccccc12` [IBA, indole-3-butyric acid], in assay [1], the Root length was found to be 0.0 mm and the “Root growth, in words” value is given as “totally inhibited”.
Turning to `O=C(O)CN(CCOCCOCCN(CC(=O)O)CC(=O)O)CC(=O)O` [EGTA, ethylene glycol-bis (β-aminoethyl ether)-N,N,N′,N′-tetraacetic acid], the Root length turned out to be 1.8 mm in assay [2]; 0.4 mm in assay [3]; 3.2 mm in assay [4]; 1.8 mm in assay [5]; 0.0 mm in assay [1]. The entries for the “Root elongation, in words” value in assay [2] and in assay [5] were “inhibited root elongation” and “significantly inhibited”, respectively. The “Inhibition of root length versus water-treated seeds” value in assay [3] was “an even greater extent”. Moreover, in assay [4] (6 mM EGTA), the “Inhibition of root elongation” value is on record as around 80%. Further, the “Root growth, in words” value in assay [1] is recorded as “totally inhibited”.
Take `OC[C@H]1O[C@@](CO)(O[C@H]2O[C@H](CO)[C@@H](O)[C@H](O)[C@H]2O)[C@@H](O)[C@@H]1O` [sucrose]: the “root development, in words” value is “stimulate root development” in assay [6] and “severely inhibited” in assay [7].
With manganese chloride, the Root length in assay [2] is reported as 4.2 mm; in assay [8] (water 12.3) it was 3.0 mm; in assay [8] (water 12.3, listed as manganese), 3 mm; in assay [3], 1.9 mm; in assay [4], 15.6 mm; in assay [5] it was 4.4 mm. For the same compound, in assay [1], the Root length is given as 0.2 mm. Also, the “Root elongation, in words” value in assay [2] is listed as “inhibited root elongation”; in assay [4] (5 mM manganese chloride), “no effect”; in assay [5] it was “Modest inhibition”. Also, the “Inhibition of root length versus water-treated seeds” value in assay [3] was 70-90%. Besides, the “Root growth, in words” value in assay [1] is “Some minor root growth”.

These data come from patent US20020026659A1, “Developed seed and methods for making the same” (priority 1999, published 2002).
